The subject of one assay is Isabrown laying hens. Kind of assay: Test 3: feed intake and egg laying of laying hens subject to thermal stress. It is filed as in vivo, hen. How it is done:
Test 3: Study of the Effect of the Administration of a Feed Comprising the Adjuvant with the Scutellaria baicalensis Extract on a Solid Vehicle on the Feed Intake of Laying Hens Subject to Thermal Stress 72 Isabrown laying hens thirty weeks old at the beginning of the test were divided into three groups of twelve cages each containing two hens. The test was carried out until the hens were 38 weeks old. Group 1 received the control feed. Group 2, also called the OTC group, received the control feed supplemented with an antibiotic, 400 ppm of oxytetracycline. Group 3, also called the SCU group, received the control feed supplemented with an extract from the root of Scutellaria baicalensis providing 6 mg of baicalin/kg of feed. After three weeks of distribution of the experimental feed, the hens were subject to a variation in temperature. The temperature of the environment increased from 22° C. (thermal comfort) to 35° C. for 5 days. Food intake, number of eggs laid and average weight of the eggs were recorded every week and every day during the week of the high temperature as well as during the following week. The test was divided into three phases: pre-heat increase phase, thermal stress phase and post-high temperature stress phase.

The subject of the next assay is piglets. Kind of assay: Test 5: state of health and resistance to disease of piglets subject to a stress. The assay is classed as in vivo, pig. The note with it: 100 ppm in the feed.

Structures are written as SMILES.

From the text for piglets: Test 5: Study of the Effect of the Administration of a Feed Comprising the Adjuvant with the Extract of Scutellaria baicalensis on a Solid Vehicle on the Improvement in the State of Health and Resistance to Disease of Piglets Subject to a Stress
The piglets were 42 days old at the beginning of the test. Three groups were formed: a control group, a group receiving the same feed supplemented with 100 ppm of an antibiotic (tylosine) and finally the last group receiving a feed supplemented with 100 ppm of an extract of Scutellaria baicalensis, that is 30 ppm of baicalin per kg of feed. The diseases were noted as were the curative treatments used in each groups.

Compound `CN(C)[C@@H]1C(O)=C(C(N)=O)C(=O)[C@@]2(O)C(O)=C3C(=O)c4c(O)cccc4[C@@](C)(O)[C@H]3[C@H](O)[C@@H]12` [OTC, oxytetracycline] displayed an egg-laying rate in the assay with Isabrown laying hens (2 weeks including the thermal stress phase and the following week, control 85.2%) of 88.5%. Further, in the assay with Isabrown laying hens (thermal stress phase (35° C. for 5 days), OTC 400 ppm in feed, SCU 6 mg baicalin/kg of feed, control 50.9 g), the “daily feed intake per hen” value is on record as 53.5 g.
For the compound `CC[C@H]1OC(=O)C[C@@H](O)[C@H](C)[C@@H](O[C@@H]2O[C@H](C)[C@@H](O[C@H]3C[C@@](C)(O)[C@@H](O)[C@H](C)O3)[C@H](N(C)C)[C@H]2O)[C@@H](CC=O)C[C@@H](C)C(=O)/C=C/C(C)=C/[C@@H]1CO[C@@H]1O[C@H](C)[C@@H](O)[C@@H](OC)[C@H]1OC` [Tylosine, tylosine], in the assay on piglets, the “% Pigs not treated” value is listed as 48%, the “% Pigs treated” value was 52%, the “% treatments” value is 56.0% and the “Mortality + elimination (%)” value amounted to 4.0%. Also, in the assay with piglets, the “Number of treatments: Cough” value is 7, the “Number of treatments: Lame” value turned out to be 0, the “Number of treatments: Lean” value amounted to 2 and the “Number of treatments: Nervous symptoms” value is reported as 1. In the assay with piglets, the “Number of treatments: Watery diarrhoea” value turned out to be 4, the “Pigs treated per cause: Cough” value turned out to be 7, the “Pigs treated per cause: Lame” value is 0 and the “Pigs treated per cause: Lean” value is 2. Further, in the assay on piglets, the “Pigs treated per cause: Nervous symptoms” value is on record as 1 and the “Pigs treated per cause: Watery diarrhoea” value was 4. Also, the “Number of pigs treated” value with piglets (P (Chi2) <0.05) was 13. In the assay on piglets (curative treatments, P (Chi2) <0.05), this compound showed a Number of treatments of 14. This compound also returned a Withdrawn from test in the assay on piglets (number of pigs) of 1. The compound also gave a Number of deaths in the assay on piglets (piglets 42 days old at start) of 0.

The values are drawn from patent US11077127B2, “Adjuvant containing baicalin, particularly from a Scutellaria baicalensis extract, and animal feed containing such an adjuvant” (DELTAVIT, priority 2014, dated 2021).
